The subject of one data set is LC-2-ad. Description: Cytotoxicity against human LC2/ad cells assessed as reduction in cell viability incubated for 6 days by CellTiter Glo assay. Format: cell-based. Conditions: 144 h. A general note: In ATP-based viability assays light output follows the ATP content of the culture.
Data set [1] in a line: Aqueous solubility of compound at pH 6.8 incubated for 24 hrs by HPLC/UV analysis. The format is physicochemical.
The nature of data set [2]: Clearance in BALB/c mouse at 2 mg/kg, iv measured upto 24 hrs by LC-MS/MS analysis. The format is ADME, organism-based. Conditions: in vivo.
The nature of data set [3]: Volume of distribution at steady state in BALB/c mouse at 2 mg/kg, iv measured upto 24 hrs by LC-MS/MS analysis. The format is ADME, organism-based. Conditions: in vivo, read-out: Vdss.
A short description of data set [4]: Half life in BALB/c mouse at 2 mg/kg, iv measured upto 24 hrs by LC-MS/MS analysis. The format is ADME, organism-based. Conditions: in vivo.
Data set [5] is described as follows: AUC in BALB/c mouse at 2 mg/kg, iv measured upto 24 hrs by LC-MS/MS analysis. The format is ADME, organism-based. More on the design: dose 2 mg/kg, time < 24 hr, route intravenous. The settings on record: in vivo.
Data set [6] can be described thus: Cmax in BALB/c mouse at 2 mg/kg, iv measured upto 24 hrs by LC-MS/MS analysis. Format: ADME, organism-based. Set-up: dose 2 mg/kg, route intravenous. The settings on record: in vivo.
The nature of data set [7]: Half life in BALB/c mouse at 10 mg/kg, po measured upto 24 hrs by LC-MS/MS analysis. The format is ADME, organism-based. Conditions: in vivo.
The nature of data set [8]: AUC in BALB/c mouse at 10 mg/kg, po measured upto 24 hrs by LC-MS/MS analysis. The format is ADME, organism-based. More on the design: dose 10 mg/kg, time < 24 hr, route oral. The settings on record: in vivo.
A short description of data set [9]: Cmax in BALB/c mouse at 10 mg/kg, po measured upto 24 hrs by LC-MS/MS analysis. The settings on record: in vivo. Format: ADME, organism-based. Set-up: dose 10 mg/kg, route oral.
Data set [10] can be described thus: Oral bioavailability in BALB/c mouse at 10 mg/kg measured upto 24 hrs by LC-MS/MS analysis. Format: ADME, organism-based. Conditions: in vivo.
Data set [11] concerns the target T1, Voltage-gated inwardly rectifying potassium channel KCNH2 (Homo sapiens, UniProt Q12809). Description: Displacement of [3H]-dofetilide from human ERG expressed in CHO cells incubated for 90 mins by microbeta scintillation counting method. The format is cell-based.
Data set [12] deals with T1, Voltage-gated inwardly rectifying potassium channel KCNH2. Kind of data set: Inhibition of human ERG expressed in human embryonic kidney cells by manual patch clamp assay. The format is cell-based. In general terms: Patch clamp records ionic current or voltage across a cell membrane.
Data set [13] is described as follows: Toxicity in Harlan Foxn1 nude mouse xenografted with rat RIE cells transfected with KIF5B/RET assessed as lungs hemorrhaging at 10 to 60 mg/kg, po administered bid for 8 days. The format is organism-based. Conditions: in vivo, 192 h.
The nature of data set [14]: Toxicity in Harlan Foxn1 nude mouse xenografted with rat RIE cells transfected with KIF5B/RET assessed as hypothermia at 10 to 60 mg/kg, po administered bid for 8 days. Format: organism-based. The settings on record: in vivo, 192 h.
The nature of data set [15]: Toxicity in Harlan Foxn1 nude mouse xenografted with rat RIE cells transfected with KIF5B/RET assessed as lungs hemorrhaging at 3 mg/kg, po administered bid for 8 days. Format: organism-based. Conditions: in vivo, 192 h.
A short description of data set [16]: Toxicity in Harlan Foxn1 nude mouse xenografted with rat RIE cells transfected with KIF5B/RET assessed as hypothermia at 3 mg/kg, po administered bid for 8 days. The format is organism-based. Conditions: in vivo, 192 h.

Values after ≈ are worked out from the molar mass of the structure shown. Where only a bound is given, the exact number is not on record here.

The text below walks through data of ChEMBL document CHEMBL4602715, “Efficacy and Tolerability of Pyrazolo[1,5-a]pyrimidine RET Kinase Inhibitors for the Treatment of Lung Adenocarcinoma” (ACS Med Chem Lett, 2020).

T1 sequence (Q12809 whole entry): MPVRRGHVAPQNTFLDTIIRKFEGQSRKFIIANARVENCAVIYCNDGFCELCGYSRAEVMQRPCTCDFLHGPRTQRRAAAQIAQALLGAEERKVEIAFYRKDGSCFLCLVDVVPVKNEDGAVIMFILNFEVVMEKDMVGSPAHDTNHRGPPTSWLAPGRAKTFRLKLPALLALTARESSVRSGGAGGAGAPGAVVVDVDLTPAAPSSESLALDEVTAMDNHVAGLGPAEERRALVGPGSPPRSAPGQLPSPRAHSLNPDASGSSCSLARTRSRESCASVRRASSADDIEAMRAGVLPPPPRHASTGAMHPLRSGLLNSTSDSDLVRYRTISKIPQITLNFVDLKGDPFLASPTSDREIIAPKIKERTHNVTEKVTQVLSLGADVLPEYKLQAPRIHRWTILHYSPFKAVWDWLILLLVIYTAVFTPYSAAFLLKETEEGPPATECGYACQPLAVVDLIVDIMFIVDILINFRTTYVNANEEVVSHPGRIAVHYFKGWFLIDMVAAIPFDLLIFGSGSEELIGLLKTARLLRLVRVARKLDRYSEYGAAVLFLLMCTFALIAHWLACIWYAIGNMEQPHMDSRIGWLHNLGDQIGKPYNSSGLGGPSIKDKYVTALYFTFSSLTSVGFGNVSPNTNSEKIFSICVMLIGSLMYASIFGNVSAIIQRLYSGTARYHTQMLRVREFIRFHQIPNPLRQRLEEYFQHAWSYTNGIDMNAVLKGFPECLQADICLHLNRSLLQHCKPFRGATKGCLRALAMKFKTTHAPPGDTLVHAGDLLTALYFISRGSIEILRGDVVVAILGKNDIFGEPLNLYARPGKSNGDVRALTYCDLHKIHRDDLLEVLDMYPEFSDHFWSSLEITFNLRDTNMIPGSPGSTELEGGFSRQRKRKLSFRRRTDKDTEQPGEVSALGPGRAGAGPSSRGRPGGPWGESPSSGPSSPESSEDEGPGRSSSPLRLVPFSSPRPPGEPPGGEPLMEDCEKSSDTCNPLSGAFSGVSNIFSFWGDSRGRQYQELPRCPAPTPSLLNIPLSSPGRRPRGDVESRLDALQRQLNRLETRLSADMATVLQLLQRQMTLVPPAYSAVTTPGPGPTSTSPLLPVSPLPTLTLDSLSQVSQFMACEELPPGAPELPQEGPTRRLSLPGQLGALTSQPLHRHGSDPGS

In general, IC50 refers to the concentration at which inhibition is half-maximal. By solubility is commonly meant how much of the substance goes into solution per volume. The low end stands for little dissolved substance, the high end for much dissolved substance. Consider `COc1ccc(-c2cnn3c(N)c(-c4ccccc4)c(OCCCN(C)C)nc23)cc1OC`, for which, in the data set on LC-2-ad, the IC50 turned out to be 2800 nM. In addition, the solubility at 24 h in data set [1] was 88 µM (≈ 39.4 µg/mL).
As for `COc1ccc(-c2cnn3c(N)c(-c4ccccc4)c(NCCCN(C)C)nc23)cc1OC`, the IC50 in the data set with LC-2-ad is > 10000 nM. Also, the solubility at 24 h in [1] is > 175 µM.
On to `COc1ccc(-c2cnn3c(N)c(-c4ccccc4)c(OC4CCNCC4)nc23)cc1OC`, for which the IC50 in the data set on LC-2-ad was determined as 2700 nM. Further, the solubility at 24 h in [1] amounted to 47 µM (≈ 20.9 µg/mL).
What is called clearance is the volume of plasma or blood freed of the substance per unit of time. Read a high clearance as efficient removal. Broadly, the half-life is the time needed for the level to fall by half in the phase considered. A lower half-life goes with rapid decline. For orientation: AUC means concentration integrated over time. What is called Cmax is the highest concentration seen after dosing. The term bioavailability denotes the share of a dose that reaches the circulation, judged against a reference dose that is usually intravenous. Low values mean little systemic uptake, high ones much systemic uptake. `COC(=O)N1CCN(C(=O)c2ccc(-c3cnn4c(N)c(-c5ccccc5)c(NC5CC(C)(C)N(C)C(C)(C)C5)nc34)cc2)CC1`: the IC50 in the data set on LC-2-ad is 1300 nM; in data set [11], 7500 nM; in [12], “Not Active”. Also, the clearance in [2] was found to be 19 mL/min/kg. Also, in data set [3], the Vd was determined as 5.1 L/kg. Besides, the half-life in [4] and in [7] was 3.7 h in each case. Also, the area under the curve (AUC) at 24 h in data set [5] came out at 2.8 µM·h; in data set [8], 8.7 µM·h. For the same compound, the Cmax is 940 nM in data set [6] and 820 nM in data set [9]. The compound further gave a bioavailability in [10] of 62%. Besides, the Activity result in data set [13] was “Toxic”; in [14], “Toxic”; in [15], “Non-Toxic”; in data set [16] it was “Non-Toxic”.
Regarding `CN1C(C)(C)CC(Nc2nc3c(-c4ccc(C(=O)N5CCN(S(C)(=O)=O)CC5)cc4)cnn3c(N)c2-c2ccccc2)CC1(C)C`, the IC50 in the data set with LC-2-ad is 2800 nM. In data set [2], the clearance was 110 mL/min/kg. In [3], the Vd was found to be 11 L/kg. The half-life in data set [4] is 1.6 h; in [7], 2.2 h. The exposure (AUC) at 24 h in [5] was found to be 0.49 µM·h; in data set [8], 0.34 µM·h. For the same compound, the figures for the Cmax in data set [6] and in data set [9] were 450 nM and 100 nM, respectively. The bioavailability in [10] is 14%.
As for `COc1ccc(-c2cnn3c(N)c(-c4ccccc4)c(NC4CCN(C)CC4)nc23)cc1OC`, the IC50 in the data set on LC-2-ad came to 5500 nM. For the same compound, the solubility at 24 h in data set [1] amounted to 85 µM (≈ 39 µg/mL).
